Read-outs that look alike come from different tables or passages of the source.
Tested on: Plutella xylostella
Assay: Insecticidal effect on Plutella xylostella (leaf disc immersion)
Assay type: in vivo
Settings: foliar, 72 h, read-out: insecticidal activity on Plutella xylostella (mortality %)
Experimental: The test reagents were all dissolved in a mixed solvent of acetone:N′N′-dimethylcarboxamide (1:1) to give a 1000 mg/L solution. 1% Tween-80 was added as an emulsifier to each solution. These solutions were then diluted with 1% Tween-20 solution in water to give desired concentrations of test solutions. An aqueous solution containing 1% Tween-20 was used as a control.
Third instar larvae of Plutella xylostella were used. Cabbages were washed, air dried, punched into leaf discs, immersed in reagent solutions for 10 sec, taken out, naturally dried and then placed in a Petri dish. 10 third-instar larvae of Plutella xylostella were inoculated to each Petri dish, and three replicates were set. The number of deaths in 3 days was investigated, and the mortality was calculated.

[1] = concentration 0.05 ppm, third instar larvae, 3 days
[2] = concentration 0.5 ppm, third instar larvae, 3 days

Compound	mortality at 0.01 ppm	mortality at 0.05 ppm	mortality at 0.5 ppm	mortality at 0.05 ppm [1]	mortality at 0.5 ppm [2]	mortality at 0.01 ppm (concentration 0.01 ppm, third instar larvae, 3 days)
CN(C(=O)c1cc(Cl)cc(Cl)c1NC(=O)c1cc(Br)nn1-c1ncccc1Cl)C(C)(C)C#N [Compound 1.15, N-(6-N-((2-cyanopropan-2-yl)-N-methylcarbamoyl)-2,4-dichlorophenyl)-1-(3-chloropyridin-2-yl)-3-bromo-1H-pyrazol-5-carboxamide]	66.7%	86.7%	100%			
Cc1cc(Cl)cc(C(=O)NC(C)(C)C#N)c1NC(=O)c1cc(Br)nn1-c1ncccc1Cl [KC1]				45.7%	71.9%	
CC(C)(C#N)NC(=O)c1cc(Cl)cc(Cl)c1NC(=O)c1cc(Br)nn1-c1ncccc1Cl [KC2]				51.4%	88.2%	28.1%
